Where two headings read alike, the source gives them in different places. One block for each compound: values may come before it.
What was measured:
Avi-HsRNMT-RAM = target: T1, Avi-HsRNMT-RAM (Homo sapiens, UniProt O43148); assay: SPR binding to immobilised Avi-HsRNMT-RAM; details: for kon: read-out: ka
T1 construct: Both HsRNMT full-length proteins (1-476) in complex with HsRAM (1-90) (HsRNMT-RAM and Avi-HsRNMT-RAM); hexa-His tag (TEV-cleavable) (N, cleaved yes); made in house; host or cells: Escherichia coli BL21 (DE3), co-transformed with pCDFduet-BirA
Source text: To elucidate the cap-binding mode, full-length HsRNMT in complex with activating subunit RAM (Avi-HsRNMT-RAM) was investigated by surface plasmon resonance (SPR). We first measured the kinetic and equilibrium binding constants (KD) for SAM (Figure 3A), SAH (Figure 3B), and Sinefungin (Figure 3C). The kinetics of binding for these compounds appear very similar with a rapid onset of binding reaching a steady state within a few seconds. The loss of binding on washing with buffer was very similar.
Studies of binding kinetics were performed on a Biacore™ 8K + instrument (GE Healthcare). […] Compounds were tested in duplicate in a three-fold, eight-point serial dilution series in immobilisation buffer supplemented with 1% DMSO, with a flow rate of 30 μL min^-1, a contact time of 60 s and a dissociation time of 120 s at 25°C.
All monitored binding resonance signals were referenced with responses from unmodified reference surfaces, corrected for bulk shifts arising from differences in DMSO concentrations between samples and running buffer (solvent correction) and blank-referenced. Analysis was performed using the Biacore™ Insight Evaluation Software 2.0 with data fitted using the Langmuir 1:1 model.
The full-length HsRNMT complexed with HsRAM 1–90 (Avi-HsRNMT-RAM) was immobilised onto a Series S high-affinity SA sensor chip via C-terminal Avi-tag capture in HBS-P + buffer (10 mM HEPES, 150 mM NaCl, 0.5 mM TCEP) to an immobilisation level of 2200 RU, and the titration was performed at 15°C.

HsRNMT-RAM [1] = target: T2, HsRNMT-RAM (Homo sapiens, UniProt O43148); assay: Isothermal titration calorimetry (ITC); format: binding; design: For biochemical assays, full-length HsRNMT (1-476) was cloned in the pOPC bi-cistronic plasmid; His-MBP (TEV-cleavable) (cleaved yes); made in house; host or cells: Escherichia coli BL21 (DE3); details: for ΔG / ΔH / −TΔS: 25 mM HEPES pH7.5, 150 mM NaCl, 1 mM TCEP with 10 mM Sinefungin or SAH at 298°K; for Kd: protein pretreated with Sinefungin or SAH
Procedure: For both DDD1060606 and DDD1870799, we determined the enthalpic and entropic components of the free energy of binding to HsRNMT-RAM to guide both compound selection and the optimisation process. Note that all of the isothermal titration calorimetry (ITC) experiments were performed with protein pretreated with SAH or Sinefungin. We used cap as the reference ligand as it is widely accepted that ligands with more negative enthalpies of binding provide better starting points for lead optimisation. The interaction of cap with HsRNMT-RAM is enthalpically driven with an ΔH of −33.5 kcal/mol (Figure 9A) and net free energy change, ΔG of −8.4 kcal/mol (Figure 9B). Furthermore, we determined the binding affinities for DDD1060606 and DDD1870799 to HsRNMT-RAM.
[…] Working stock for ligands and protein complex was prepared at the required concentration by diluting the stocks with the dialysis buffer. The DMSO concentrations in the cell and syringe solutions were matched to 2.5% for the compound (DDD1060606 or DDD1870799) titrations. Experiments were performed using 13 injections of 3 μL of ligand using Malvern PEAQ-ITC system at 25°C, at 750 rpm with reference power set to 7 μcal/s. The thermograms were analysed using MicroCal PEAQ-ITC Analysis Software, blanked to ligand control and fit to One Set of Sites Model.

HsRNMT-RAM [2] = target: T2, HsRNMT-RAM; assay: Mode of inhibition experiments (RapidFire assay); details: for Ki: Ki (95% CI)
HsRNMT-RAM [3] = target: T2, HsRNMT-RAM; assay: RapidFire mass spectrometry assay, inhibition dose response; format: biochemical; design: For biochemical assays, full-length HsRNMT (1-476) was cloned in the pOPC bi-cistronic plasmid; His-MBP (TEV-cleavable) (cleaved yes); made in house; host or cells: Escherichia coli BL21 (DE3); details: for IC50: 5 nM HsRNMT-RAM, 2 µM SAM, 2 µM cap, 60 minutes, 10 point 1:3 dilutions from 100 μM, read-out: pIC50 (negative logarithm of half-maximal inhibitory concentration [molar]) (converted)
HsRNMT-RAM [4] = target: T2, HsRNMT-RAM; assay: Km determinations (RapidFire Mass Spec assay); format: biochemical; design: For biochemical assays, full-length HsRNMT (1-476) was cloned in the pOPC bi-cistronic plasmid; His-MBP (TEV-cleavable) (cleaved yes); made in house; host or cells: Escherichia coli BL21 (DE3); details: SAM 40 to 0.08 µM, saturating cap (40 µM), 5 nM enzyme; mean of three experiments [95% CI]
Procedure: Experiments to determine the Km^app values were carried out using a two-fold dilution of cap or SAM from 40 to 0.08 µM and a saturating concentration (40 µM) of SAM (Km^app cap) or cap (Km^app SAM). HsRNMT-RAM was used at 5 nM. Data were analysed to calculate the initial velocity (V0). Km^app and Vmax values were determined by nonlinear regression analysis fitted to the Michaelis–Menten equation [46] using Sigmaplot Version 14.0.3.192.

[5] = SPR, ligand titrated in presence of SAH
[6] = SPR, ligand titrated in presence of Sinefungin (saturating, 1 µM), 15°C
[7] = SPR, no co-ligand, Langmuir 1:1 model
[8] = SPR, inhibitor titrated in presence of SAH
[9] = SPR, inhibitor titrated in presence of SAH, read-out: KD (kinetic)
[10] = SPR, inhibitor titrated in presence of SAH, read-out: KD (steady state)
[11] = SPR, inhibitor titrated in presence of SAM
[12] = SPR, inhibitor titrated, no co-ligand
[13] = SPR, no co-ligand, read-out: KD (kinetic)
[14] = SPR, no co-ligand, read-out: KD (steady state)

T1 sequence (O43148 whole entry): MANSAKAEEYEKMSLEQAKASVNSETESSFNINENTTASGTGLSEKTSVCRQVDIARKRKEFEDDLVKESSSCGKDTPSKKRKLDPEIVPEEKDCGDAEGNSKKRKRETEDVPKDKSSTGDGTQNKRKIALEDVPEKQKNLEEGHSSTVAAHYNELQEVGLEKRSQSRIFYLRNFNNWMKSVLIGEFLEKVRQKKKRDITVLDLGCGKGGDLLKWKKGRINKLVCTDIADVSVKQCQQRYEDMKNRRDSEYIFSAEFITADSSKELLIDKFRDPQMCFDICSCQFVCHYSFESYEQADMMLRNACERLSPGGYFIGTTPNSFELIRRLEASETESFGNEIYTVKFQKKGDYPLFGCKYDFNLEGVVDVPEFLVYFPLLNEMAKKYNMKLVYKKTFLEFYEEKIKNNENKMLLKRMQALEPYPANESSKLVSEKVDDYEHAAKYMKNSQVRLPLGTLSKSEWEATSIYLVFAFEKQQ
T1 sequence (Q9BTL3 1-90 partner limits assumed): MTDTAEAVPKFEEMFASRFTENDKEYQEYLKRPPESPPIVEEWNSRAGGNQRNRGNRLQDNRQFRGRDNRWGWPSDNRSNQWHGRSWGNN
T2 sequence (O43148 whole entry): as the sequence (O43148 whole entry) above
T2 sequence (Q9BTL3 1-90 partner limits assumed): as the sequence (Q9BTL3 1-90 partner limits assumed) above

Compound: Nc1nc2c(ncn2[C@@H]2O[C@H](COP(=O)(O)OP(=O)(O)OP(=O)(O)OC[C@H]3O[C@@H](n4cnc5c(=O)[nH]c(N)nc54)[C@H](O)[C@@H]3O)[C@@H](O)[C@H]2O)c(=O)[nH]1 [Cap, G(5′)ppp(5′)G]
KD (kinetic) (Avi-HsRNMT-RAM; [5]): No binding | KD (steady state) (Avi-HsRNMT-RAM; [5]): No binding | Rmax (Avi-HsRNMT-RAM; [5]): No binding | ka (Avi-HsRNMT-RAM; [5]): No binding | kd (Avi-HsRNMT-RAM; [5]): No binding | KD (kinetic) (Avi-HsRNMT-RAM; SPR, ligand titrated in presence of SAH, listed as cap): No interaction | Rmax (Avi-HsRNMT-RAM; [6]): 11.8 RU | kd (Avi-HsRNMT-RAM; [6]): 0.025 s⁻¹ | Kd (Avi-HsRNMT-RAM; SPR, ligand titrated in presence of Sinefungin (saturating, 1 µM), 15°C, read-out: KD (kinetic)): 0.02 µM | Kd (Avi-HsRNMT-RAM; SPR, ligand titrated in presence of Sinefungin (saturating, 1 µM), 15°C, read-out: KD (steady state)): 0.035 µM | kon (Avi-HsRNMT-RAM; [6]): 1.2e+06 M⁻¹ s⁻¹ | KD (kinetic) (Avi-HsRNMT-RAM; SPR, no co-ligand): No binding | KD (steady state) (Avi-HsRNMT-RAM; SPR, no co-ligand): No binding | Rmax (Avi-HsRNMT-RAM; SPR, no co-ligand): No binding | ka (Avi-HsRNMT-RAM; [7]): No binding | kd (Avi-HsRNMT-RAM; [7]): No binding | KD (kinetic) (Avi-HsRNMT-RAM; SPR, no co-ligand, listed as cap): No interaction | ΔG (HsRNMT-RAM [1]): -8.4 kcal/mol | ΔH (HsRNMT-RAM [1]): -33.5 kcal/mol | −TΔS (HsRNMT-RAM [1]): 25.1 kcal/mol | Kd (HsRNMT-RAM [1]): 0.7 µM

Compound: Nc1nc(O)c2ncn([C@@H]3O[C@H](COP(=O)(O)OP(=O)(O)NP(=O)(O)O)[C@@H](O)[C@H]3O)c2n1 [GMP-PnP, guanosine 5′-[β,γ-imido]triphosphate, reference compound]
Ki (HsRNMT-RAM [2]; Ki cap, against cap): 2.3 µM | mode of inhibition with cap (HsRNMT-RAM [2]; against cap): competitive

Compound: Nc1ncnc2c1ncn2[C@@H]1O[C@H](CSCC[C@H](N)C(=O)O)[C@@H](O)[C@H]1O [SAH, S-adenosylhomocysteine]
Rmax (Avi-HsRNMT-RAM; SPR, no co-ligand): 14.3 RU | kd (Avi-HsRNMT-RAM; [7]): 0.072 s⁻¹ | Kd (Avi-HsRNMT-RAM; [13]): 0.019 µM | Kd (Avi-HsRNMT-RAM; [14]): 0.018 µM | kon (Avi-HsRNMT-RAM): 3.8e+06 M⁻¹ s⁻¹

Compound: C[S+](CC[C@H](N)C(=O)[O-])C[C@H]1O[C@@H](n2cnc3c(N)ncnc32)[C@H](O)[C@@H]1O (stereo partly drawn) [SAM, S-adenosylmethionine]
Rmax (Avi-HsRNMT-RAM; SPR, no co-ligand): 14.9 RU | kd (Avi-HsRNMT-RAM; [7]): 0.1 s⁻¹ | Kd (Avi-HsRNMT-RAM; [13]): 0.079 µM | Kd (Avi-HsRNMT-RAM; [14]): 0.089 µM | kon (Avi-HsRNMT-RAM): 1.2e+06 M⁻¹ s⁻¹ | Km (HsRNMT-RAM [4]): 1.6 µM

Compound: Nc1ncnc2c1ncn2[C@@H]1O[C@H](C[C@@H](N)CC[C@H](N)C(=O)O)[C@@H](O)[C@H]1O [Sinefungin, reference compound]
Rmax (Avi-HsRNMT-RAM; SPR, no co-ligand): 14.2 RU | kd (Avi-HsRNMT-RAM; [7]): 0.092 s⁻¹ | Kd (Avi-HsRNMT-RAM; [13]): 0.077 µM | Kd (Avi-HsRNMT-RAM; [14]): 0.073 µM | kon (Avi-HsRNMT-RAM): 1.2e+06 M⁻¹ s⁻¹ | Ki (HsRNMT-RAM [2]; Ki SAM, against SAM): 0.0068 µM | Ki (HsRNMT-RAM [2]; Ki cap, against cap): 0.104 µM | mode of inhibition with SAM (HsRNMT-RAM [2]; against SAM): competitive inhibition | mode of inhibition with cap (HsRNMT-RAM [2]; against cap): non-competitive inhibition

Results, then the compound that gave them:

Rmax (Avi-HsRNMT-RAM; [8]): 13.2 RU | kd (Avi-HsRNMT-RAM; [8]): 0.27 s⁻¹ | Kd (Avi-HsRNMT-RAM; [9]): 1.6 µM | Kd (Avi-HsRNMT-RAM; [10]): 1.4 µM | KD (kinetic) (Avi-HsRNMT-RAM; [11]): No binding | KD (steady state) (Avi-HsRNMT-RAM; [11]): No binding | Rmax (Avi-HsRNMT-RAM; [11]): No binding | ka (Avi-HsRNMT-RAM; [11]): No binding | kd (Avi-HsRNMT-RAM; [11]): No binding | KD (kinetic) (Avi-HsRNMT-RAM; [12]): No binding | KD (steady state) (Avi-HsRNMT-RAM; [12]): No binding | Rmax (Avi-HsRNMT-RAM; [12]): No binding | ka (Avi-HsRNMT-RAM; [12]): No binding | kd (Avi-HsRNMT-RAM; [12]): No binding | Ki (HsRNMT-RAM [2]; Ki SAM, against SAM): 1.6 µM | Ki (HsRNMT-RAM [2]; Ki cap, against cap): 1.6 µM | mode of inhibition with SAM (HsRNMT-RAM [2]; against SAM): Uncompetitive | mode of inhibition with cap (HsRNMT-RAM [2]; against cap): Uncompetitive | inhibition of HsRNMT-RAM activity (HsRNMT-RAM [3]): > 80% | IC50 (HsRNMT-RAM [3]): 3.16 µM | ΔG (HsRNMT-RAM [1]): -7.5 kcal/mol | ΔH (HsRNMT-RAM [1]): -4.3 kcal/mol | −TΔS (HsRNMT-RAM [1]): -3.1 kcal/mol | entropic contribution Δ(TΔS) (HsRNMT-RAM [1]; DDD1060606 compared with DDD1870799): -1.8 kcal/mol | Kd (HsRNMT-RAM [1]): 3.2 µM
Compound: O=C(Cc1ccsc1)N1CCCC(c2n[nH]c3ncccc23)C1 (stereo not drawn) [DDD1060606]

Rmax (Avi-HsRNMT-RAM; [8]): 13.3 RU | kd (Avi-HsRNMT-RAM; [8]): 0.45 s⁻¹ | Kd (Avi-HsRNMT-RAM; [9]): 2.5 µM | Kd (Avi-HsRNMT-RAM; [10]): 2.3 µM | KD (kinetic) (Avi-HsRNMT-RAM; [11]): No binding | KD (steady state) (Avi-HsRNMT-RAM; [11]): No binding | Rmax (Avi-HsRNMT-RAM; [11]): No binding | ka (Avi-HsRNMT-RAM; [11]): No binding | kd (Avi-HsRNMT-RAM; [11]): No binding | KD (kinetic) (Avi-HsRNMT-RAM; [12]): No binding | KD (steady state) (Avi-HsRNMT-RAM; [12]): No binding | Rmax (Avi-HsRNMT-RAM; [12]): No binding | ka (Avi-HsRNMT-RAM; [12]): No binding | kd (Avi-HsRNMT-RAM; [12]): No binding | Ki (HsRNMT-RAM [2]; Ki SAM, against SAM): 3.4 µM | Ki (HsRNMT-RAM [2]; Ki cap, against cap): 3.3 µM | mode of inhibition with SAM (HsRNMT-RAM [2]; against SAM): Uncompetitive | mode of inhibition with cap (HsRNMT-RAM [2]; against cap): Uncompetitive | inhibition of HsRNMT-RAM activity (HsRNMT-RAM [3]): > 80% | IC50 (HsRNMT-RAM [3]): 10 µM | ΔG (HsRNMT-RAM [1]): -7.5 kcal/mol | ΔH (HsRNMT-RAM [1]): -6.2 kcal/mol | −TΔS (HsRNMT-RAM [1]): -1.3 kcal/mol | net enthalpic change ΔΔH (HsRNMT-RAM [1]; DDD1870799 in comparison with DDD1060606): -1.9 kcal/mol | Kd (HsRNMT-RAM [1]): 2.9 µM
Compound: O=C(Cc1ccc(F)cc1)N1CCCC(c2n[nH]c3nc(O)ccc23)C1 (stereo not drawn) [DDD1870799]
